{"source": "patent US20250051282A1", "about": "“COMPOUNDS FOR TREATING POLYQ-RELATED NEURODEGENERATIVE DISORDERS” (HANGZHOU JIJING PHARMACEUTICAL TECHNOLOGY LIMITED, priority 2021, published 2025)", "tested_on": "ATXN1(60Q)", "assay": "Daoy-ATXN1(60Q)-mATXN1 MSD assay (CTG normalized)", "type": "cell-based", "experimental": "Protocol for MSD Assay: Daoy-ATXN1(600)-mATXN1 MSD (CTG normalized)\nThe Flag-ATXN1(60Q) gene is synthesized by Genescript and cloned into the pLVX-IRES-Puro vector (Takarabio, catalog No. 632183) using EcoRI/BamHI restriction enzyme sites. Lentivirus is made by transfecting HEK293T cells with pLVX-IRES-Puro-Flag-ATXN1(60Q) plasmids and packaging plasmids psPAX2 and pMD2.G at 4:3:1 ratio (8:6:[…], respectively) in 10 cm plates, and are harvested at 48 hours post transfection. Daoy cells (ATCC catalog No. HTB-186) seeded in T25 flasks are infected with the lentivirus in the presence of 8 µg/mL polybrene (Sigma, TR-1003-G) for 24 hours. 48 hours post infection, the cells are selected using 0.5 […] (Sigma, P8833) for more than 5 days until all cells in the uninfected group die. The expression of Flag-ATXN1(60Q) is verified by anti-Flag immunoblot using anti-Flag antibody (Sigma, F1804-200UG, M2).\nAs explained above, Daoy-Flag-ATXN1(60Q) cells are prepared as a stable cell line by infecting Daoy cells with lentivirus. The media for the cells is EMEM (ATTC, 30-2008) with 10% fetal bovin serum (FBS).\nOn Day 1, the Daoy-Flag-ATXN1(60Q) cells are seeded in a 96 well plate at a concentration of 1.2×10^4/well. On Day 2, the cells are treated with test compounds at test concentrations (compounds are serially diluted with DMSO to obtain test concentrations, such that final DMSO concentration is 0.3%). On Day 3, the cells are washed with 100 μL of phosphate-buffered saline (PBS) per well, and then 30 μL of radioimmuno-precipitation assay (RIPA) buffer (with protease and phosphatase inhibitor cocktail) is added to each well.\nThe well plate is then cooled on ice for 30 minutes in order to complete lysis, and MSD samples are prepared using 10 μL of Daoy-Flag-ATXN1-60Q lysate and 90 μL of RIPA buffer with gentle mixing. Each MSD sample has a total volume of 100 μL, and is used immediately or stored at −80° C.\nA standard Meso Scale Discovery (MSD) plate is coated with anti-Flag (Sigma, F1804-200UG, M2) in PBS at 1:500 dilution ratio and 40 µL/well, and is incubated at 4° C. overnight with shaking at 600 rpm. Then, the MSD plate is washed 3 times with 150 µL/well of 1X TBST (tris-buffered saline (TBS) with Tween 20) buffer, and the MSD plate is blocked with 150 μL of blocking buffer [3% Blocker A in 1X TBST, (3 g Blocker A per 100 mL 1X TBST)] and shaken for 1 hour at 600 rpm at room temperature. Then, the MSD plate is washed three times with 150 μL/well of 1X TBST. Next, the diluted lysate samples (from Sample Preparation above) are added to the MSD plate at 25 μL/well, and the MSD plate is shaken at 600 rpm for 1 hour at room temperature. Then the MSD plate is washed 3 times with 150 μL/well of 1X TBST.\nDetection antibody anti-Ataxin 1 (G-bio, ITA1916) (1:500), which is prepared in antibody detection buffer (1% Blocker A in 1X TBST), is then added to the MSD plate at 25 µL/well, and the MSD plate is shaken at 600 rpm for 1 hour at room temperature. The MSD plate is then washed three times with 150 μL/well of 1X TBST. Next, a secondary detection antibody, Goat anti-rabit (GAR) with SULFO-TAG (1:500), which is prepared in antibody detection buffer (1% Blocker A in 1X TBST), is added at 25 μL/well and the MSD plate is shaken at 600 rpm for 1 hour at room temperature. Then the MSD plate is washed 3 times with 150 μL/well of 1X TBST, and 2X MSD reading buffer is added at 150 μL/well (diluted from 4x MSD reading buffer with water). Finally, the signal from each well is measured on the MSD Meso QuickPle SQ120 Plate Reader. DC50 data is calculated using collaborate drug discovery (CDD) software (https://www.collaborativedrug.com/about).", "key": {"[1]": {"settings": "Daoy-Flag-ATXN1(60Q) stable cells, compound added Day 2, lysis Day 3, final DMSO 0.3%, read-out: Daoy-ATXN1(60Q)-mATXN1 MSD (CTG normalized) DC50"}}, "note": "Where two headings read alike, the source gives them in different places.", "data": [{"compound": "N#Cc1n[nH]cc1N/C(=C1\\C(=O)Nc2ccc(Br)cc21)c1ccccc1", "note": "[Example 48, (Z)-4-(((5-bromo-2-oxoindolin-3-ylidene)(phenyl)methyl)amino)-1H-pyrazole-3-carbonitrile]", "values": [{"measurement": "DC50", "setting": "[1]", "result": "> 30", "unit": "µM"}]}, {"compound": "NC(=C1C(=O)Nc2ccc(Br)cc21)C1COc2ccccc2O1", "note": "(stereo not shown) [Example 79, 3-(Amino(2,3-dihydrobenzo[b] [1,4]dioxin-2-yl)methylene)-5-bromoindolin-2-one]", "values": [{"measurement": "DC50", "setting": "[1]", "result": "> 30", "unit": "µM"}]}, {"compound": "NCCN/C(=C1\\C(=O)Nc2ccc(Br)cc21)c1cccc(C(F)F)c1", "note": "[Example 30, (Z)-3-(((2-aminoethyl)amino)(3-(difluoromethyl)phenyl)methylene)-5-bromoindolin-2-one]", "values": [{"measurement": "DC50", "setting": "[1]", "result": "< 10", "unit": "µM"}]}, {"compound": "Nc1cccc(/C(NC2CNC2)=C2/C(=O)Nc3ccc(OC(F)(F)F)cc32)c1", "note": "[Example 34, (Z)-3-((3-aminophenyl)(azetidin-3-ylamino)methylene)-5-(trifluoromethoxy) indolin-2-one]", "values": [{"measurement": "DC50", "setting": "[1]", "result": "< 10", "unit": "µM"}]}, {"compound": "O=C1Nc2ccc(Br)cc2/C1=C(/NC1CCC1)c1cccc(O)c1", "note": "[Example 8, (Z)-5-bromo-3-((cyclobutylamino) (3-hydroxyphenyl)methylene)indolin-2-one]", "values": [{"measurement": "DC50", "setting": "[1]", "result": "< 10", "unit": "µM"}]}, {"compound": "NCCN/C(=C1\\C(=O)Nc2ccc(Br)cc21)c1ccccc1", "note": "[Example 28, (Z)-3-(((2-aminoethyl)amino) (phenyl)methylene)-5-bromoindolin-2-one]", "values": [{"measurement": "DC50", "setting": "[1]", "result": "10 to 30", "unit": "µM"}]}, {"compound": "O=C1Nc2ccc(Br)cc2/C1=C(/NC1CC1)c1cccc(O)c1", "note": "[Example 7, (Z)-5-bromo-3-((cyclopropylamino) (3-hydroxyphenyl)methylene)indolin-2-one]", "values": [{"measurement": "DC50", "setting": "[1]", "result": "< 10", "unit": "µM"}]}, {"compound": "N/C(=C1\\C(=O)Nc2ccc(Br)cc21)c1cc2ccccc2o1", "note": "[Example 76, (Z)-3-(amino (benzofuran-2-yl)methylene)-5-bromoindolin-2-one]", "values": [{"measurement": "DC50", "setting": "[1]", "result": "< 10", "unit": "µM"}]}, {"compound": "NCCN/C(=C1\\C(=O)Nc2ccc(Br)cc21)c1ccc2[nH]c(=O)oc2c1", "note": "[Example 57, (Z)-6-(((2-aminoethyl)amino)(5-bromo-2-oxoindolin-3-ylidene)methyl) benzo[d]oxazol-2(3H)-one]", "values": [{"measurement": "DC50", "setting": "[1]", "result": "10 to 30", "unit": "µM"}]}, {"compound": "O=C1Nc2ccc(Br)cc2/C1=C(/Nc1c[nH]cn1)c1cccc(O)c1", "note": "[Example 17, (Z)-3-(((1H-imidazol-4-yl)amino)(3-hydroxyphenyl)methylene)-5-bromoindolin-2-one]", "values": [{"measurement": "DC50", "setting": "[1]", "result": "< 10", "unit": "µM"}]}, {"compound": "Cn1cc(N/C(=C2\\C(=O)Nc3ccc(Br)cc32)c2ccccc2)c(C(F)(F)F)n1", "note": "[Example 51, (Z)-5-bromo-3-(((1-methyl-3-(trifluoromethyl)-1H-pyrazol-4-yl)amino)(phenyl)methylene)indolin-2-one]", "values": [{"measurement": "DC50", "setting": "[1]", "result": "> 30", "unit": "µM"}]}, {"compound": "O=C1Nc2ccc(Br)cc2/C1=C(/Nc1ccc(C(=O)O)cc1)c1cccc(O)c1", "note": "[Example 74, (Z)-4-(((5-bromo-2-oxoindolin-3-ylidene)(3-hydroxyphenyl)methyl)amino)benzoic acid]", "values": [{"measurement": "DC50", "setting": "[1]", "result": "10 to 30", "unit": "µM"}]}, {"compound": "Nc1ccc(/C(Nc2ccnnc2)=C2/C(=O)Nc3ccc(Br)cc32)cc1O", "note": "[Example 63, (Z)-3-((4-amino-3-hydroxyphenyl)(pyridazin-4-ylamino)methylene)-5-bromoindolin-2-one]", "values": [{"measurement": "DC50", "setting": "[1]", "result": "< 10", "unit": "µM"}]}, {"compound": "NCCN/C(=C1\\C(=O)Nc2ccc(Br)cc21)c1cccc(O)c1", "note": "[Example 27, (Z)-3-(((2-aminoethyl)amino)(3-hydroxyphenyl)methylene)-5-bromo indolin-2-one]", "values": [{"measurement": "DC50", "setting": "[1]", "result": "< 10", "unit": "µM"}]}, {"compound": "O=C1Nc2ccc(OC(F)(F)F)cc2/C1=C(/NCCO)c1cccc(O)c1", "note": "[Example 18, (Z)-3-(((2-hydroxyethyl)amino)(3-hydroxyphenyl)methylene)-5-(trifluoromethoxy) indolin-2-one]", "values": [{"measurement": "DC50", "setting": "[1]", "result": "< 10", "unit": "µM"}]}, {"compound": "Nc1cccc(/C(NCCCF)=C2/C(=O)Nc3ccc(Br)cc32)c1", "note": "[Example 58, (Z)-3-((3-aminophenyl)((3-fluoropropyl)amino)methylene)-5-bromoindolin-2-one]", "values": [{"measurement": "DC50", "setting": "[1]", "result": "< 10", "unit": "µM"}]}, {"compound": "O=C1Nc2ccc(Br)cc2/C1=C(/Nc1cnccn1)c1ccccc1", "note": "[Example 46, (Z)-5-bromo-3-(phenyl(pyrazin-2-ylamino)methylene) indolin-2-one]", "values": [{"measurement": "DC50", "setting": "[1]", "result": "> 30", "unit": "µM"}]}, {"compound": "N/C(=C1\\C(=O)Nc2ccc(Br)cc21)c1cc(O)c(Br)cn1", "note": "[Example 83, (Z)-3-(amino(5-bromo-4-hydroxypyridin-2-yl)methylene)-5-bromoindolin-2-one]", "values": [{"measurement": "DC50", "setting": "[1]", "result": "> 30", "unit": "µM"}]}, {"compound": "N/C(=C1\\C(=O)Nc2ccc(Br)cc21)c1ccncc1", "note": "[Example 77, (Z)-3-(amino (pyridin-4-yl)methylene)-5-bromoindolin-2-one]", "values": [{"measurement": "DC50", "setting": "[1]", "result": "< 10", "unit": "µM"}]}, {"compound": "O=C1Nc2ccc(Br)cc2/C1=C(/Nc1cnccn1)c1cccc(O)c1", "note": "[Example 72, (Z)-5-bromo-3-((3-hydroxyphenyl) (pyrazin-2-ylamino)methylene)indolin-2-one]", "values": [{"measurement": "DC50", "setting": "[1]", "result": "< 10", "unit": "µM"}]}, {"compound": "O=C1Nc2ccc(Br)cc2/C1=C(/Nc1cccnn1)c1cccc(O)c1", "note": "[Example 73, (Z)-5-bromo-3-((3-hydroxyphenyl) (pyridazin-3-ylamino)methylene)indolin-2-one]", "values": [{"measurement": "DC50", "setting": "[1]", "result": "< 10", "unit": "µM"}]}, {"compound": "N/C(=C1\\C(=O)Nc2ccc(Br)cc21)c1ncccn1", "note": "[Example 78, (Z)-3-(amino (pyrimidin-2-yl)methylene)-5-bromoindolin-2-one]", "values": [{"measurement": "DC50", "setting": "[1]", "result": "> 30", "unit": "µM"}]}, {"compound": "O=C1Nc2ccc(Br)cc2/C1=C(/Nc1cn[nH]c1)c1cccc(O)c1", "note": "[Example 70, (Z)-3-(((1H-pyrazol-4-yl)amino)(3-hydroxyphenyl)methylene)-5-bromoindolin-2-one]", "values": [{"measurement": "DC50", "setting": "[1]", "result": "< 10", "unit": "µM"}]}, {"compound": "O=C1Nc2ccc(Br)cc2/C1=C(/Nc1cncnc1)c1ccccc1", "note": "[Example 45, (Z)-5-bromo-3-(phenyl(pyrimidin-5-ylamino)methylene) indolin-2-one]", "values": [{"measurement": "DC50", "setting": "[1]", "result": "< 10", "unit": "µM"}]}, {"compound": "O=C1Nc2ccc(Br)cc2/C1=C(/NCCCF)c1cccc(O)c1", "note": "[Example 6, (Z)-5-bromo-3-(((3-fluoropropyl)amino) (3-hydroxyphenyl)methylene)indolin-2-one]", "values": [{"measurement": "DC50", "setting": "[1]", "result": "< 10", "unit": "µM"}]}, {"compound": "CCCN/C(=C1\\C(=O)Nc2ccc(Br)cc21)c1cccc(O)c1", "note": "[Example 5, (Z)-5-bromo-3-((3-hydroxyphenyl) (propylamino)methylene) indolin-2-one]", "values": [{"measurement": "DC50", "setting": "read-out: Daoy-ATXN1(60Q)-mATXN1 MSD (CTG normalized) DC50, Daoy-Flag-ATXN1(60Q) stable cells, compound added Day 2, lysis Day 3, final DMSO 0.3%", "result": "< 10", "unit": "µM"}]}, {"compound": "Cn1cc(N/C(=C2\\C(=O)Nc3ccc(Br)cc32)c2ccc(F)c(F)c2)cn1", "note": "[Example 43, (Z)-5-bromo-3-((3,4-difluorophenyl)((1-methyl-1H-pyrazol-4-yl)amino)methylene) indolin-2-one]", "values": [{"measurement": "DC50", "setting": "[1]", "result": "> 30", "unit": "µM"}]}, {"compound": "N/C(=C1\\C(=O)Nc2ccc(Br)cc21)c1cc(C(F)F)ccn1", "note": "[Example 75, (Z)-3-(amino(4-(difluoromethyl)pyridin-2-yl)methylene)-5-bromo indolin-2-one]", "values": [{"measurement": "DC50", "setting": "[1]", "result": "10 to 30", "unit": "µM"}]}, {"compound": "O=C1Nc2ccc(Br)cc2/C1=C(/NCCCF)c1ccccc1", "note": "[Example 19, (Z)-5-bromo-3-(((3-fluoropropyl)amino) (phenyl)methylene) indolin-2-one]", "values": [{"measurement": "DC50", "setting": "[1]", "result": "< 10", "unit": "µM"}]}, {"compound": "O=C1Nc2ccc(Br)cc2/C1=C(/NC1CNC1)c1cccc(O)c1", "note": "[Example 26, (Z)-3-((azetidin-3-ylamino)(3-hydroxyphenyl)methylene) 5-bromindolin-2-one]", "values": [{"measurement": "DC50", "setting": "[1]", "result": "< 10", "unit": "µM"}]}, {"compound": "O=C1Nc2ccc(Br)cc2/C1=C(/Nc1cccnn1)c1ccccc1", "note": "[Example 44, (Z)-5-bromo-3-(phenyl(pyridazin-3-ylamino)methylene) indolin-2-one]", "values": [{"measurement": "DC50", "setting": "[1]", "result": "> 30", "unit": "µM"}]}]}
